According to PubChem BioAssay (NCI):
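Grown in 96-well plates, cells were treated for 48 hours with each compound at five concentrations. Insufficient inhibition: endpoint recorded as highest concentration tested. Definition used: TGI = concentration required for complete inhibition of growth.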

Assays:
Experiment in all cases: NCI anticancer screen, dose series, 48 h
CAKI-1 renal = tested on: CAKI-1 renal
CCRF-CEM leukemia = tested on: CCRF-CEM leukemia
HCT-116 colon = tested on: HCT-116 colon
MALME-3M melanoma = tested on: MALME-3M melanoma
NCI-H226 lung = tested on: NCI-H226 lung
NCI-H23 lung = tested on: NCI-H23 lung
NCI-H522 lung = tested on: NCI-H522 lung
OVCAR-3 ovarian = tested on: OVCAR-3 ovarian
SF-539 CNS = tested on: SF-539 CNS
SK-MEL-28 melanoma = tested on: SK-MEL-28 melanoma
IGROV1 ovarian = tested on: IGROV1 ovarian
SF-295 CNS = tested on: SF-295 CNS
SK-OV-3 ovarian = tested on: SK-OV-3 ovarian
T-47D breast = tested on: T-47D breast

SMILES	TGI (CAKI-1 renal) [µM]	TGI (CCRF-CEM leukemia) [µM]	TGI (HCT-116 colon) [µM]	TGI (MALME-3M melanoma) [µM]	TGI (NCI-H226 lung) [µM]	TGI (NCI-H23 lung) [µM]	TGI (NCI-H522 lung) [µM]	TGI (OVCAR-3 ovarian) [µM]	TGI (SF-539 CNS) [µM]	TGI (SK-MEL-28 melanoma) [µM]	TGI (IGROV1 ovarian) [µM]	TGI (SF-295 CNS) [µM]	TGI (SK-OV-3 ovarian) [µM]	TGI (T-47D breast) [µM]
N#CC(NC12CC3CC(CC(C3)C1)C2)c1ccccc1C(F)(F)F (stereo not given)	> 100	> 100	> 100	> 100	> 100	> 100	> 100	> 100	> 100	> 100	–	–	–	–
CCOC(=O)N/N=C(/N)c1cccc([N+](=O)[O-])c1	> 100	> 100	> 100	> 100	–	> 100	> 100	> 100	> 100	> 100	> 100	> 100	> 100	> 100
Cc1ccc(/C=C2\CCCc3ccccc3C2=O)cc1	> 100	36.5	29.1	34.5	36.1	89.1	27.8	50.8	37.5	> 100	49.2	16.6	58	–
COC[C@@H](C[C@H]1O[C@@](O)([C@H](O)[C@@H]2C[C@H](OC)[C@@H](O)CC/C=C(C)/C=C/[C@@H](O[C@@H]3O[C@@H](C)[C@H](OC)[C@@H](O)[C@@H]3O)[C@H](C)/C=C(C)/C=C(C)/C=C(\C)C(=O)O2)[C@H](C)[C@@H](O)[C@H]1C)O[C@H]1C[C@](C)(O)[C@@H](O[C@H]2C[C@@H](OC)[C@H](O)[C@@H](C)O2)C(C)O1 (stereo not given in full)	> 100	–	> 100	> 55.5	> 100	> 100	–	> 100	> 100	> 100	> 100	> 100	> 100	> 100
Cc1cccc(N=NC(=O)NNc2cccc(C)c2C)c1C	> 100	–	72.2	73.3	> 100	> 100	53.6	> 100	–	> 100	> 100	–	–	> 100
NC(Cc1ccccc1)C(=O)N[C@H]1c2ccsc2/C(=N/O)[C@H]1O (stereo not given in full)	> 100	> 100	> 100	> 100	> 100	> 100	–	> 100	> 100	> 100	> 100	> 100	> 100	> 100
O=C(O)c1ccc([N+](=O)[O-])c2cc3cnccc3nc12	–	9.03	33	42.2	61.6	62.9	32.4	36.4	–	34.8	> 100	> 100	> 100	58.6
O=C1/C(=N/O)Cc2c(Br)ccc(Br)c21	> 100	> 100	> 100	–	> 100	> 100	91.3	70.3	> 100	> 100	> 100	> 100	> 100	> 100
O=C1C=CC[C@H]2O[C@@H](COC(=O)Cc3ccccc3)C[C@H]2O1	> 100	> 100	–	–	> 100	66.6	–	> 100	> 100	74.4	54.6	> 100	> 100	> 100
CN1CCC(O)(C(C)(C)C)CC1	> 100	> 100	> 100	> 100	> 100	> 100	–	> 100	–	> 100	> 100	> 100	> 100	> 100
Cc1ccc2c(c1)C(C(=O)N[C@@H]1C(=O)N3[C@@H]1SC(C)(C)[C@@H]3C(=O)O)OCCC2 (stereo not given in full)	> 100	> 100	> 100	–	> 100	> 100	> 100	> 100	> 100	> 100	> 100	> 100	> 100	> 100
CC(=O)OCC12C(=O)C[C@@H](C)C3(CC(c4ccoc4)OC3=O)C1CCC(OC(C)=O)C21CO1 (stereo not given in full)	> 100	–	> 100	> 100	> 100	> 100	> 100	> 100	> 100	> 100	> 100	> 100	–	> 100
COc1ccc(C2OC[C@H]3O[C@@H](OCc4ccccc4)[C@H](O)[C@@H](O)[C@@H]3O2)cc1 (stereo not given in full)	> 100	> 100	> 100	–	> 100	> 100	–	> 100	> 100	> 100	> 100	> 100	> 100	–
COc1cc(Cn2c3c(c4cc(O)ccc42)Cc2ccccc2C3=O)cc(OC)c1	> 100	86	> 100	> 100	> 100	> 100	–	> 100	> 100	> 100	> 100	93.9	> 100	–
NC(N)=N/N=C/c1c[nH]c2ccccc12	> 100	> 100	–	> 100	> 100	> 100	> 100	> 100	> 100	> 100	> 100	> 100	> 100	–
O=Cc1c(C(=O)O)[nH]c(=O)[nH]c1=O	> 100	> 100	> 100	> 100	> 100	> 100	> 100	> 100	> 100	> 100	> 100	> 100	> 100	–
CC1OC(OC2C(O[C@H]3CC[C@@]4(C)C(=CC[C@H]5[C@@H]6C[C@@H]7O[C@]8(CC[C@@H](CO)CO8)[C@@H](C)[C@@H]7[C@@]6(C)CC[C@@H]54)C3)OC(CO)C(O)C2OC2OC(CO)C(O)C(O)C2O)C(O)C(O)C1O (stereo not given in full)	3.55	–	3.02	3.34	3.79	4.07	3.19	–	3.07	3.46	4.05	–	4.19	4.02
O=C1CCC(c2ccc(Cl)cc2)=NN1c1nsc2ccccc12	–	80	51.2	–	–	> 100	–	44.7	> 100	> 100	> 100	–	–	–
